In US12077503B2, “Substituted cyclic amides and their use as herbicides” (FMC CORPORATION, priority 2015, dated 2024):

Assays:
Assay type in all cases: in vivo
[1] = test system: redroot pigweed (Amaranthus retroflexus); experiment: Test G Post-Emergence Protocol; conditions: Amaranthus retroflexus, post-emergence, 312 h, read-out: Pigweed, Redroot damage rating
How it was run: (§1)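 Scores run 0 (no damage) to 100 (total damage) and were taken 13 days after spraying. Plants had been raised in pots for 8 days under glasshouse control (24/16 °C, 14 h photoperiod, 65% humidity) and then treated at 15.625, 62.5 or 250 g/ha.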

[2] = test system: velvetleaf (Abutilon theophrasti); experiment: Test G Post-Emergence Protocol; conditions: Abutilon theophrasti, post-emergence, 312 h, read-out: Velvetleaf damage rating
How it was run: as §1

[3] = test system: ivy-leaved morning glory (Ipomoea hederacea); experiment: Test G Post-Emergence Protocol; conditions: Ipomoea, post-emergence, 312 h, read-out: Morningglory, Ivy-leaved damage rating
How it was run: as §1

[4] = test system: corn (Zea mays); experiment: Test G Post-Emergence Protocol; conditions: Zea mays, post-emergence, 312 h, read-out: Corn damage rating
How it was run: as §1

[5] = test system: giant foxtail (Setaria faberi); experiment: Test G Post-Emergence Protocol; conditions: Setaria faberi, post-emergence, 312 h, read-out: Foxtail, Giant damage rating
How it was run: as §1

[6] = test system: barnyardgrass (Echinochloa crus-galli); experiment: Test G Post-Emergence Protocol; conditions: Echinochloa crus-galli, post-emergence, 312 h, read-out: Barnyardgrass damage rating
How it was run: as §1

[7] = test system: redroot pigweed (Amaranthus retroflexus); experiment: Test G Pre-Emergence Protocol; conditions: Amaranthus retroflexus, pre-emergence, 312 h, evaluated after 13 days
How it was run: (§2)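 Seeds were sown in standard soil and kept one day in a glasshouse (24/16° C day/night, 14 h light, 65% humidity), then sprayed with compound in acetone/water (50:50) containing 0.5% Tween 20 at 15.625, 62.5 or 250 g/ha. Damage was scored after 13 days (0 = none, 100 = total).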

[8] = test system: velvetleaf (Abutilon theophrasti); experiment: Test G Pre-Emergence Protocol; conditions: Abutilon theophrasti, pre-emergence, 312 h, evaluated after 13 days
How it was run: as §2

[9] = test system: ivy-leaved morning glory (Ipomoea hederacea); experiment: Test G Pre-Emergence Protocol; conditions: Ipomoea, pre-emergence, 312 h, evaluated after 13 days
How it was run: as §2

[10] = test system: corn (Zea mays); experiment: Test G Pre-Emergence Protocol; conditions: Zea mays, pre-emergence, 312 h, evaluated after 13 days
How it was run: as §2

[11] = test system: giant foxtail (Setaria faberi); experiment: Test G Pre-Emergence Protocol; conditions: Setaria faberi, pre-emergence, 312 h, evaluated after 13 days
How it was run: as §2

[12] = test system: barnyardgrass (Echinochloa crus-galli); experiment: Test G Pre-Emergence Protocol; conditions: Echinochloa crus-galli, pre-emergence, 312 h, evaluated after 13 days
How it was run: as §2

[13] = 15.625 g ai/ha, evaluated after 13 days (100=total damage to plant; 0=no damage to plant)
[14] = 62.5 g ai/ha, evaluated after 13 days, 100=total damage to plant, 0=no damage to plant
[15] = 250 g ai/ha, evaluated after 13 days, 100=total damage to plant, 0=no damage to plant

Cc1nc(F)ccc1NC(=O)[C@@H]1C(=O)N(C)C[C@H]1c1ccc(C(F)(F)F)cc1 (racemic) [Compound 1654]
40%: pest or weed control at 250 g/ha [2, 15] | pest or weed control at 62.5 g/ha [5, 14]
0%: pest or weed control at 15.625 g/ha [2, 13] | plant injury at 15.625 g/ha [4, 13] | plant injury at 62.5 g/ha [4, 14] | pest or weed control at 15.625 g/ha [6, 13] | pest or weed control at 15.625 g/ha ([7]; 15.625 g ai/ha, read-out: Pigweed, Redroot damage rating (100=total damage to plant; 0=no damage to plant)) | pest or weed control at 62.5 g/ha ([7]; 62.5 g ai/ha, 100=total damage to plant, 0=no damage to plant, read-out: Pigweed, Redroot damage rating) | pest or weed control at 250 g/ha ([7]; 250 g ai/ha, read-out: Pigweed, Redroot damage rating (100=total damage to plant; 0=no damage to plant)) | pest or weed control at 15.625 g/ha ([8]; 15.625 g ai/ha, read-out: Velvetleaf damage rating (100=total damage to plant; 0=no damage to plant)) | pest or weed control at 62.5 g/ha ([8]; 62.5 g ai/ha, 100=total damage to plant, 0=no damage to plant, read-out: Velvetleaf damage rating) | pest or weed control at 15.625 g/ha ([9]; 15.625 g ai/ha, read-out: Morningglory, Ivy-leaved damage rating (100=total damage to plant; 0=no damage to plant)) | pest or weed control at 62.5 g/ha ([9]; 62.5 g ai/ha, 100=total damage to plant, 0=no damage to plant, read-out: Morningglory, Ivy-leaved damage rating) | plant injury at 15.625 g/ha ([10]; 15.625 g ai/ha, read-out: Corn damage rating (100=total damage to plant; 0=no damage to plant)) | plant injury at 62.5 g/ha ([10]; 62.5 g ai/ha, 100=total damage to plant, 0=no damage to plant, read-out: Corn damage rating) | pest or weed control at 15.625 g/ha ([12]; 15.625 g ai/ha, read-out: Barnyardgrass damage rating (100=total damage to plant; 0=no damage to plant)) | pest or weed control at 62.5 g/ha ([12]; 62.5 g ai/ha, 100=total damage to plant, 0=no damage to plant, read-out: Barnyardgrass damage rating)
10%: pest or weed control at 15.625 g/ha [1, 13] | pest or weed control at 15.625 g/ha [3, 13] | pest or weed control at 250 g/ha ([8]; 250 g ai/ha, read-out: Velvetleaf damage rating (100=total damage to plant; 0=no damage to plant))
80%: pest or weed control at 250 g/ha [5, 15] | pest or weed control at 250 g/ha ([12]; 250 g ai/ha, read-out: Barnyardgrass damage rating (100=total damage to plant; 0=no damage to plant))
90%: pest or weed control at 250 g/ha ([11]; 250 g ai/ha, read-out: Foxtail, Giant damage rating (100=total damage to plant; 0=no damage to plant))
60%: pest or weed control at 250 g/ha [6, 15] | pest or weed control at 62.5 g/ha ([11]; 62.5 g ai/ha, 100=total damage to plant, 0=no damage to plant, read-out: Foxtail, Giant damage rating)
20%: pest or weed control at 62.5 g/ha [1, 14] | pest or weed control at 62.5 g/ha [2, 14] | pest or weed control at 62.5 g/ha [3, 14] | plant injury at 250 g/ha [4, 15] | pest or weed control at 15.625 g/ha [5, 13] | pest or weed control at 62.5 g/ha [6, 14] | plant injury at 250 g/ha ([10]; 250 g ai/ha, read-out: Corn damage rating (100=total damage to plant; 0=no damage to plant)) | pest or weed control at 15.625 g/ha ([11]; 15.625 g ai/ha, read-out: Foxtail, Giant damage rating (100=total damage to plant; 0=no damage to plant))
30%: pest or weed control at 250 g/ha [1, 15] | pest or weed control at 250 g/ha [3, 15]
